Assay results taken from US9206200B2, “N-linked lactam M1 receptor positive allosteric mogulators” (Merck Sharp & Dohme Corp., priority 2011, dated 2015).
Where two headings read alike, the source gives them in different places.

Molecular target: T1, acetylcholine muscarinic M1 receptor (Homo sapiens, UniProt P11229)
T1 construct: expressed in transfected cells; host or cells: CHOnfat cells (CHO cells with an NFAT reporter) expressing hM1, kept under Geneticin selection
T1 sequence (P11229 1-460): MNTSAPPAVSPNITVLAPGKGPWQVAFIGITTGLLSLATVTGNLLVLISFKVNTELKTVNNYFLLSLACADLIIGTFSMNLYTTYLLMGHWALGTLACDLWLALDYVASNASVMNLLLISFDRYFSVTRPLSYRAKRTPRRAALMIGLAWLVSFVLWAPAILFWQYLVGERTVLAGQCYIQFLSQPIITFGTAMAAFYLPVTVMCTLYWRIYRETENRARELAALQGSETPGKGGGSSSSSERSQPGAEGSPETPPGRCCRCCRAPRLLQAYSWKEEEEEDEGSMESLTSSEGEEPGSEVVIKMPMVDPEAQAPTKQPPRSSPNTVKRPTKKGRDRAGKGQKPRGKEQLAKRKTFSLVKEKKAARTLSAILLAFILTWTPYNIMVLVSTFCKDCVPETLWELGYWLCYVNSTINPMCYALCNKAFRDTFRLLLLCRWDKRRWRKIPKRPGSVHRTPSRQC
Test: muscarinic FLIPR assay: intracellular calcium in CHOnfat/hM1 cells, potentiation of EC20 acetylcholine
Assay type: cell-based
Details: EC20 acetylcholine (3 nM final)
Experimental: The assay studies the effect of one or several concentrations of test compounds on basal or acetylcholine-stimulated Ca^2+ levels using FLIPR.
Compounds are prepared and subjected to a preincubation period of […]. Thereafter, a single EC20 concentration of acetylcholine is added to each well (3 nM final). The intracellular Ca^2+ level of each sample is measured and compared to an acetylcholine control to determine any modulatory activity.
Cells: CHOnfat/hM1, hM2, hM3 or hM4 cells are plated 24 hr before the assay at a density of 18,000 cells/well (100 μL) in a 384 well plate. CHOnfat/hM1 and CHOnfat/hM3 Growth Medium: 90% DMEM (Hi Glucose); 10% HI FBS; 2 mM L-glutamine; 0.1 mM NEAA; Pen-Strep; and 1 mg/ml Geneticin, are added. For M2Gqi5CHOnfat and M4Gqi5CHOnfat cells, an additional 600 ug/ml hygromycin is added.
Equipment: 384 well plate, 120 μl, addition plate; 96-well Whatman 2 ml Uniplate Incubator, 37° C., 5% CO2; Skatron EMBLA-384 Plate Washer; Multimek Pipetting System; Genesis Freedom 200 System; Mosquito System; Temo Nanolitre Pipetting System; and FLIPR^384 Fluorometric Imaging Plate Reader System are used.
Buffers. Assay Buffer: Hanks Balanced Salt Solution, with 20 mM Hepes, 2.5 mM Probenecid (Sigma P-8761) first dissolved in 1 N NaOH, 1% Bovine Serum Albumin (Sigma A-9647). Dye Loading Buffer: Assay Buffer plus 1% Fetal Bovine Serum and Fluo-4AM/Pluronic Acid Mixture. 2 mM Fluo-4AM ester stock in DMSO (Molecular Probes F-14202) Concentration of 2 μM in buffer for a final concentration of 1 μM in Assay. 20% Pluronic Acid Solution stock, with concentration of 0.04% in Buffer, 0.02% in Assay.
65 μL of 2 mM Fluo-4AM are mixed with 130 μL of 20% Pluronic Acid. The resulting solution and 650 μL FBS is added to the assay buffer for a total volume of 65 mL. Positive Controls: 4-Br-A23187: 10 mM in DMSO; final concentration 10 μM. Acetylcholine: 10 mM in water, working stock at both 20 μM and 30 μM in assay buffer, final concentration of 10 μM. This is used to check the maximum stimulation of the CHOK1/hM1 cells. 20 μM (2×) acetylcholine is added in the preincubation part of the assay, and the 30 μM (3×) stock is added in the second part. (EC20)Acetylcholine: 10 mM in water, working stock of 9 nM (3×), and final concentration in assay is 3 nM. This is used after the preincubation with test compounds. Addition of the EC20 Acetylcholine to each well with a test compound will ascertain any modulator activity. 24 wells contain 3 nM Acetylcholine alone as a control.
Determining Activity of Putative Compounds:
Screening Plate Compounds are titrated in 96-well plates (columns 2-11), 100% DMSO, started at a concentration of 15 mM (150× stock concentration), and 3-fold serial dilutions using Genesis Freedom200 System. Four 96-well plates are combined into a 384-well plate using Mosquito Nanolitre Pipetting System by transferring 1 μl of serial diluted compounds to each well, and 1 mM acetylcholine (100× stock concentration) were added as a control. Using Temo, 49 μl assay buffer is added to each well of the 384-well plate right before assay.
In a 96-well Whatman 2 ml Uniplate, 9 nM Acetylcholine (3×) is pipetted into wells corresponding to the screening compounds, and into control wells. The 30 μM acetylcholine control (3×) is added into control wells, and the 3× agonist plate is transferred into a 384 well plate.
Cells are washed three times with 100 μL of buffer, leaving […] of buffer in each well. Using Multimek, 30 μL of Dye Loading Buffer is added into each well and incubated at 37° C., 5% CO2 for up to one hr.
After 60 min, the cells are washed three times with 100 μL of buffer, leaving 30 μL of buffer in each well. The cell plate, screening plate, and agonist addition plates are placed on the platform in the FLIPR and the door closed. A signal test to check background fluorescence and basal fluorescence signal is performed. Laser intensity is adjusted if necessary.

[1] = Table 2, CHOnfat/hM1 cells, FLIPR, read-out: M1 Pot.
[2] = Table 1, CHOnfat/hM1 cells, FLIPR, read-out: M1 Pot.
[3] = Table 3, inflection point calculated from the FLIPR values, read-out: IP Value

Row | Molecule | EC50 [1] | EC50 [3] | also measured
1 | 1-({8-[(1S,2S)-2-hydroxycyclohexyl]-7-oxo-8,9-dihydro-7H-pyrrolo[3,4-h]quinolin-5-yl}methyl)-4-(6-methoxypyridin-2-yl)piperidine-4-carbonitrile [Example 155] | 0.52 µM |  | 
2 | 1-({8-[(1S,2S)-2-hydroxycyclohexyl]-7-oxo-8,9-dihydro-7H-pyrrolo[3,4-h]quinolin-5-yl}methyl)-4-(6-methoxypyridin-2-yl)piperidine-4-carbonitrile [Example 156] | 0.057 µM |  | 
3 | O=C1c2cc(CN3C[C@@H](F)[C@H](F)C3)c3ccccc3c2CN1C1CCCCC1O (relative stereo) [Example 29, 5-{[trans-3,4-difluoropyrrolidin-1-yl]methyl}-2-(2-hydroxycyclohexyl)-1,2-dihydro-3H-benzo[e]isoindol-3-one] |  |  | EC50 [2]: 0.24 µM
4 | CC1c2c(cc(CN3CCC(C#N)(c4ccccn4)CC3)c3ccccc23)C(=O)N1[C@H]1CCCC[C@@H]1O (single isomer, unassigned) [Example 44] |  |  | EC50 [2]: 0.0096 µM
5 | CC1c2c(cc(CN3CCC(C#N)(c4ccccn4)CC3)c3ccccc23)C(=O)N1[C@H]1CCCC[C@@H]1O (single isomer, unassigned) [Example 45] |  |  | EC50 [2]: 0.272 µM
6 | CC1c2c(cc(CN3CCC(F)(C#N)CC3)c3cccnc23)C(=O)N1C1CCCCC1O (single isomer, unassigned) [Example 118, 4-fluoro-1-{[8-(2-hydroxycyclohexyl)-9-methyl-7-oxo-8,9-dihydro-7H-pyrrolo[3,4-h]quinolin-5-yl]methyl}piperidine-4-carbonitrile] | 0.45 µM |  | 
7 | CC1c2c(cc(CN3CCC(F)(C#N)CC3)c3cccnc23)C(=O)N1C1CCCCC1O (single isomer, unassigned) [Example 119, 4-fluoro-1-{[8-(2-hydroxycyclohexyl)-9-methyl-7-oxo-8,9-dihydro-7H-pyrrolo[3,4-h]quinolin-5-yl]methyl}piperidine-4-carbonitrile] | 0.044 µM |  | 
8 | N#CC1(c2ccccn2)CCN(Cc2cc3c(c4ccccc24)CN([C@H]2CCCC[C@@H]2O)C3=O)CC1 [Example 1, 1-({2-[(1S,2S)-2-Hydroxycyclohexyl]-3-oxo-2,3-dihydro-1H-benzo[e]isoindol-5-yl}methyl)-4-(pyridine-2-yl)piperidine-4-carbonitrile] |  | 0.01 µM | 
9 | O=C1c2cc(CN3CCC(F)(c4ccccn4)CC3)c3ccccc3c2CN1[C@H]1CCCC[C@@H]1O [Example 2, 5-{[4-Fluoro-4-(pyridine-2-yl)piperidine-1-yl]methyl}-2-[(1S,2S)-2-hydroxycyclohexyl]-1,2-dihydro-3H-benzo[e]isoindol-3-one] |  | 0.058 µM | 
10 | CC1c2c(cc(CN3CCC(C#N)(c4ccccn4)CC3)c3ccccc23)C(=O)N1[C@H]1CCCC[C@@H]1O (stereo partly drawn) [Example 3, 1-({2-[(1S,2S)-2-Hydroxycyclohexyl]-1-methyl-3-oxo-2,3-dihydro-1H-benzo[e]isoindol-5-yl}methyl)-4-(pyridine-2-yl)piperidine-4-carbonitrile] |  | 0.019 µM | 
11 | Cc1cccc(C2(C#N)CCN(Cc3cc4c(c5ccccc35)CN([C@H]3CCCC[C@@H]3O)C4=O)CC2)n1 [Example 4, 1-({2-[(1S,2S)-2-Hydroxycyclohexyl]-3-oxo-2,3-dihydro-1H-benzo[e]isoindol-5-yl}methyl)-4-(6-methylpyridin-2-yl)piperidine-4-carbonitrile] |  | 0.027 µM | 
12 | CCc1cccc(C2(C#N)CCN(Cc3cc4c(c5ccccc35)CN([C@H]3CCCC[C@@H]3O)C4=O)CC2)n1 [Example 5, 4-(6-Ethylpyridin-2-yl)-1-({2-[(1S,2S)-hydroxycyclohexyl]-3-oxo-2,3-dihydro-1H-benzo[e]isoindol-5-yl}methyl)piperidine-4-carbonitrile] |  | 0.055 µM | 
13 | COc1cccc(C2(C#N)CCN(Cc3cc4c(c5ccccc35)CN([C@H]3CCCC[C@@H]3O)C4=O)CC2)n1 [Example 6, 1-({2-[(1S,2S)-2-Hydroxycyclohexyl]-3-oxo-2,3-dihydro-1H-benzo[e]isoindol-5-yl}methyl)-4-(6-methoxypyridin-2-yl)piperidine-4-carbonitrile] |  | 0.065 µM | 
